Source: ChEMBL document CHEMBL3232945 (Eur J Med Chem, 2014)

What was measured:
Rattus norvegicus [1] = assay: Toxicity in anaesthetized-Wistar rat assessed as P-Q ECG interval at 40 mg/kg, ip after 15 mins (reference value: 52.2 +/- 1.158 ms); type: organism-based; parameters: dose 40 mg/kg, route intraperitoneal; conditions: in vivo, 0.25 h
Rattus norvegicus [2] = assay: Toxicity in anaesthetized-Wistar rat assessed as P-Q ECG interval at 40 mg/kg, ip after 45 mins (reference value: 52.5 +/- 0.780 ms); type: organism-based; parameters: dose 40 mg/kg, route intraperitoneal; conditions: in vivo, 0.75 h
Rattus norvegicus [3] = assay: Toxicity in anaesthetized-Wistar rat assessed as Q-T ECG interval at 40 mg/kg, ip after 60 mins (reference value: 79.7 +/- 0.965 ms); type: organism-based; parameters: dose 40 mg/kg, route intraperitoneal; conditions: in vivo, 1 h
Rattus norvegicus [4] = assay: Antihypertensive activity in Wistar rat assessed as mean arterial pressure at 40 mg/kg, ip after 45 mins (reference value: 193.96 +/- 0.865 mmHg); type: functional, Artery; conditions: route intraperitoneal
Rattus norvegicus [5] = assay: Toxicity in anaesthetized-Wistar rat assessed as QRS ECG interval at 40 mg/kg, ip after 45 mins (reference value: 20.2 +/- 1.348 ms); type: organism-based; parameters: dose 40 mg/kg, route intraperitoneal; conditions: in vivo, 0.75 h
Rattus norvegicus [6] = assay: Toxicity in anaesthetized-Wistar rat assessed as QRS ECG interval at 40 mg/kg, ip measured immediately at 0 min (reference value: 19.6 +/- 1.142 ms); type: organism-based; parameters: dose 40 mg/kg, route intraperitoneal; conditions: in vivo, 0 h
Rattus norvegicus [7] = assay: Antihypertensive activity in Wistar rat assessed as mean arterial pressure at 40 mg/kg, ip after 15 mins (reference value: 195.68 +/- 1.623 mmHg); type: functional, Artery; conditions: route intraperitoneal
Rattus norvegicus [8] = assay: Toxicity in anaesthetized-Wistar rat assessed as Q-T ECG interval at 40 mg/kg, ip measured immediately at 0 min (reference value: 78.8 +/- 1.030 ms); type: organism-based; parameters: dose 40 mg/kg, route intraperitoneal; conditions: in vivo, 0 h
Rattus norvegicus [9] = assay: Toxicity in […] normotensive Wistar rat assessed as mean arterial pressure at 40 mg/kg, ip after 30 mins (reference value: 94.68 +/- 1.213 mmHg); type: organism-based, Artery; parameters: dose 40 mg/kg, route intraperitoneal; conditions: in vivo, 0.5 h
Rattus norvegicus [10] = assay: Toxicity in […] normotensive Wistar rat assessed as mean arterial pressure at 40 mg/kg, ip after 15 mins (reference value: 93.81 +/- 1.543 mmHg); type: organism-based, Artery; parameters: dose 40 mg/kg, route intraperitoneal; conditions: in vivo, 0.25 h
Rattus norvegicus [11] = assay: Toxicity in anesthetized-normotensive Wistar rat assessed as heart rate at 40 mg/kg, ip after 15 mins (reference value: 313.93 +/- 9.912 bpm); type: organism-based; parameters: dose 40 mg/kg, route intraperitoneal; conditions: in vivo, 0.25 h
Rattus norvegicus [12] = assay: Toxicity in anesthetized-normotensive Wistar rat assessed as heart rate at 40 mg/kg, ip after 45 mins (reference value: 316.82 +/- 8.452 bpm); type: organism-based; parameters: dose 40 mg/kg, route intraperitoneal; conditions: in vivo, 0.75 h
Rattus norvegicus [13] = assay: Toxicity in anaesthetized-Wistar rat assessed as P-Q ECG interval at 40 mg/kg, ip measured immediately at 0 min (reference value: 52.4 +/- 0.927 ms); type: organism-based; parameters: dose 40 mg/kg, route intraperitoneal; conditions: in vivo, 0 h
Rattus norvegicus [14] = assay: Antiarrhythmic activity in barium chloride-induced Wistar rat assessed as increase in mortality time at 40 mg/kg, ip administered 60 mins before barium chloride challenge (reference value: 682.8 +/- 9.656 secs); type: functional, Heart; conditions: route intraperitoneal
Rattus norvegicus [15] = assay: Toxicity in anaesthetized-Wistar rat assessed as QRS ECG interval at 40 mg/kg, ip after 30 mins (reference value: 19.9 +/- 1.393 ms); type: organism-based; parameters: dose 40 mg/kg, route intraperitoneal; conditions: in vivo, 0.5 h
Rattus norvegicus [16] = assay: Antiarrhythmic activity in barium chloride-induced Wistar rat assessed as increase in appearance time of arrhythmia at 40 mg/kg, ip administered 60 mins before barium chloride challenge (reference value: 129.4 +/- 4.373 sec); type: functional, Heart; conditions: route intraperitoneal
Rattus norvegicus [17] = assay: Toxicity in anesthetized-normotensive Wistar rat assessed as heart rate at 40 mg/kg, ip after 30 mins (reference value: 317.68 +/- 7.631 bpm); type: organism-based; parameters: dose 40 mg/kg, route intraperitoneal; conditions: in vivo, 0.5 h
Rattus norvegicus [18] = assay: Toxicity in anaesthetized-Wistar rat assessed as Q-T ECG interval at 40 mg/kg, ip after 15 mins (reference value: 79.4 +/- 1.270 ms); type: organism-based; parameters: dose 40 mg/kg, route intraperitoneal; conditions: in vivo, 0.25 h
Rattus norvegicus [19] = assay: Toxicity in anesthetized-normotensive Wistar rat assessed as heart rate at 40 mg/kg, ip after 60 mins (reference value: 314.96 +/- 9.442 bpm); type: organism-based; parameters: dose 40 mg/kg, route intraperitoneal; conditions: in vivo, 1 h
Rattus norvegicus [20] = assay: Toxicity in anaesthetized-Wistar rat assessed as P-Q ECG interval at 40 mg/kg, ip after 60 mins (reference value: […] +/- 0.924 ms); type: organism-based; parameters: dose 40 mg/kg, route intraperitoneal; conditions: in vivo, 1 h
Rattus norvegicus [21] = assay: Toxicity in anaesthetized-Wistar rat assessed as QRS ECG interval at 40 mg/kg, ip after 60 mins (reference value: 19.3 +/- 0.873 ms); type: organism-based; parameters: dose 40 mg/kg, route intraperitoneal; conditions: in vivo, 1 h
Rattus norvegicus [22] = assay: Toxicity in […] normotensive Wistar rat assessed as mean arterial pressure at 40 mg/kg, ip after 45 mins (reference value: 94.83 +/- 0.943 mmHg); type: organism-based, Artery; parameters: dose 40 mg/kg, route intraperitoneal; conditions: in vivo, 0.75 h
Rattus norvegicus [23] = assay: Toxicity in […] normotensive Wistar rat assessed as mean arterial pressure at 40 mg/kg, ip after 60 mins (reference value: 95.07 +/- 1.973 mmHg); type: organism-based, Artery; parameters: dose 40 mg/kg, route intraperitoneal; conditions: in vivo, 1 h
Rattus norvegicus [24] = assay: Antihypertensive activity in Wistar rat assessed as mean arterial pressure at 40 mg/kg, ip measured immediately at 0 min (reference value: 194.08 +/- 1.962 mmHg); type: functional, Artery; conditions: route intraperitoneal
Rattus norvegicus [25] = assay: Toxicity in anesthetized-normotensive Wistar rat assessed as heart rate at 40 mg/kg, ip measured immediately at 0 min (reference value: 316.62 +/- 9.643 bpm); type: organism-based; parameters: dose 40 mg/kg, route intraperitoneal; conditions: in vivo, 0 h
Rattus norvegicus [26] = assay: Toxicity in anaesthetized-Wistar rat assessed as Q-T ECG interval at 40 mg/kg, ip after 30 mins (reference value: 78.3 +/- 0.860 ms); type: organism-based; parameters: dose 40 mg/kg, route intraperitoneal; conditions: in vivo, 0.5 h
Rattus norvegicus [27] = assay: Antihypertensive activity in Wistar rat assessed as mean arterial pressure at 40 mg/kg, ip after 60 mins (reference value: 195.11 +/- 0.531 mmHg); type: functional, Artery; conditions: route intraperitoneal
Rattus norvegicus [28] = assay: Toxicity in anaesthetized-Wistar rat assessed as P-Q ECG interval at 40 mg/kg, ip after 30 mins (reference value: […] +/- 0.927 ms); type: organism-based; parameters: dose 40 mg/kg, route intraperitoneal; conditions: in vivo, 0.5 h
Rattus norvegicus [29] = assay: Toxicity in […] normotensive Wistar rat assessed as mean arterial pressure at 40 mg/kg, ip measured immediately at 0 min (reference value: 94.21 +/- 2.065 mmHg); type: organism-based, Artery; parameters: dose 40 mg/kg, route intraperitoneal; conditions: in vivo, 0 h
Rattus norvegicus [30] = assay: Toxicity in anaesthetized-Wistar rat assessed as QRS ECG interval at 40 mg/kg, ip after 15 mins (reference value: 18.9 +/- 1.563 ms); type: organism-based; parameters: dose 40 mg/kg, route intraperitoneal; conditions: in vivo, 0.25 h
Rattus norvegicus [31] = assay: Antihypertensive activity in Wistar rat assessed as mean arterial pressure at 40 mg/kg, ip after 30 mins (reference value: 194.72 +/- 1.002 mmHg); type: functional, Artery; conditions: route intraperitoneal

Compound | Activity (Rattus norvegicus [1]) [min] | Activity (Rattus norvegicus [2]) [min] | Activity (Rattus norvegicus [3]) [ms] | Activity (Rattus norvegicus [4]) [mmHg] | Activity (Rattus norvegicus [5]) [min] | Activity (Rattus norvegicus [6]) [min] | Activity (Rattus norvegicus [7]) [mmHg] | Activity (Rattus norvegicus [8]) [min] | Activity (Rattus norvegicus [9]) [mmHg] | Activity (Rattus norvegicus [10]) [mmHg] | Activity (Rattus norvegicus [11]) [bpm] | Activity (Rattus norvegicus [12]) [bpm] | Activity (Rattus norvegicus [13]) [ms] | Time (Rattus norvegicus [14]) [s] | Activity (Rattus norvegicus [15]) [ms] | Time (Rattus norvegicus [16]) [s] | Activity (Rattus norvegicus [17]) [bpm] | Activity (Rattus norvegicus [18]) [min] | Activity (Rattus norvegicus [19]) [bpm] | Activity (Rattus norvegicus [20]) [min] | further results
O=C1/C(=C\c2ccccc2)S/C(=N\c2ccccc2)N1CC(O)CN1CCCCC1 (stereo not drawn) | 51.7 | 50.6 | 71.8 | 145.87 | 22.8 | 20.2 | 165.33 | 72.7 | 72.76 | 82.63 | 297.54 | 274.15 | 52.2 | 886.9 | 21.9 | 279.3 | 268.74 | 72.9 | 303.32 | 51.5 | Activity (Rattus norvegicus [21]): 22.6 min; Activity (Rattus norvegicus [22]): 64.69 mmHg; Activity (Rattus norvegicus [23]): 76.12 mmHg; Activity (Rattus norvegicus [24]): 194.76 mmHg; Activity (Rattus norvegicus [25]): 308.43 bpm; Activity (Rattus norvegicus [26]): 73.3 min; Activity (Rattus norvegicus [27]): 166.84 mmHg; Activity (Rattus norvegicus [28]): 51.9 min; Activity (Rattus norvegicus [29]): 94.65 mmHg; Activity (Rattus norvegicus [30]): 21.5 min; Activity (Rattus norvegicus [31]): 134.16 mmHg
O=C1/C(=C\c2ccccc2)S/C(=N\c2ccccc2)N1CC(O)CN1CCOCC1 (stereo not drawn) | 50.2 | 51.3 | 74.2 | 131.61 | 23.1 | 23.4 | 175.31 | 74.3 | 73.87 | 82.61 | 304.65 | 294.42 | 49.9 | 1089.8 | 23.8 | 313.5 | 293.54 | 74.9 | 308.42 | 52.7 | Activity (Rattus norvegicus [21]): 23.7 min; Activity (Rattus norvegicus [22]): 62.69 mmHg; Activity (Rattus norvegicus [23]): 71.43 mmHg; Activity (Rattus norvegicus [24]): 195.43 mmHg; Activity (Rattus norvegicus [25]): 315.15 bpm; Activity (Rattus norvegicus [26]): 73.2 min; Activity (Rattus norvegicus [27]): 154.93 mmHg; Activity (Rattus norvegicus [28]): 50.9 min; Activity (Rattus norvegicus [29]): 92.99 mmHg; Activity (Rattus norvegicus [30]): 23.2 min; Activity (Rattus norvegicus [31]): 168.61 mmHg
CCCCN(CCCC)CC(O)CN1C(=O)/C(=C\c2ccccc2)S/C1=N\c1ccccc1 (stereo not drawn) | 55 | 57.3 | 66.4 | 163.37 | 22.4 | 20.4 | 171.43 | 67 | 77.87 | 84.43 | 297.25 | 283.5 | 53.5 | 786.2 | 22 | 265.4 | 276.46 | 67.9 | 301.69 | 54.3 | Activity (Rattus norvegicus [21]): 22.6 min; Activity (Rattus norvegicus [22]): 80.16 mmHg; Activity (Rattus norvegicus [23]): 90.59 mmHg; Activity (Rattus norvegicus [24]): 195.08 mmHg; Activity (Rattus norvegicus [25]): 309.12 bpm; Activity (Rattus norvegicus [26]): 68.9 min; Activity (Rattus norvegicus [27]): 182.09 mmHg; Activity (Rattus norvegicus [28]): 56.1 min; Activity (Rattus norvegicus [29]): 95.56 mmHg; Activity (Rattus norvegicus [30]): 21.6 min; Activity (Rattus norvegicus [31]): 159.69 mmHg
